This is an account of results in patent US20260265675A1, “Methods for Enhanced Gene Expression in Microorganisms” (ALGAE-C INC., priority 2023, published 2026).

What all share (type): cell-based, Chlamydomonas reinhardtii
Data set [1] has as its system mVenus. The data set can be described thus: mVenus expression after 6-day treatment with SAHA analogs and other HDAC inhibitors (96 well liquid culture, flow cytometry and plate reader). The conditions noted are these: for expression of the transgene: mVenus transgene in Chlamydomonas reinhardtii, compared with other histone deacetylase inhibitors; for frequency of mVenus-positive cells / increase of amount of mVenus inside each cell (mean fluorescence intensity) / increase of frequency of mVenus-positive cells: day 3 post-treatment. As for the experimental part: For the SAHA (vorinostat), belinostat, dacinostat, panobinostat, mocetinostat, entinostat, and romidepsin series of treatments (comparison between various SAHA analogs and other HDAC inhibitors), inoculums of 10^5 cells in late exponential phase of growth were transferred in 200 μL of TAP medium in 96 well plates and were treated with 5 μM of each histone deacetylase inhibitor for 6 days. DMSO was used as a negative control.
(§1) Growth curves were obtained using a Synergy H1 plate reader (Biotek, Agilent), from two or three biological replicates for each strain studied as in (Molino et al., 2022). For SAHA main treatments, 250 μL samples of 50 mL cultures were added in 96 well flat bottom microplates (Corning Costar 96-Well, Cell Culture-Treated, Fisher Scientifics). The OD absorbance was read at 750 nm. Bottom read scan mode mean fluorescence was measured with Excitation (Ex): 500 nm/Emission (Em): 541 nm for mVenus; and bottom read fluorescence Ex: 475 nm/Em: 650 nm for chlorophyll.
(§2) A Cytomics FC500 cytometer equipped with Argon (488 nm) and HeNe (633 nm) lasers were used to measure mVenus emission on the FL1 channel (525/15 nm), and chloroplast fluorescence on the FL4 channel (675/15 nm) (Beckman Coulter Life Sciences). At least 10 000 events were acquired. A homogeneous cloud of intact cells was first gated based on size (FSC) and granulosity (SSC). Then a daughter gate selected the cloud of cells with homogenous chlorophyll autofluorescence. The % of mVenus^+ cells was measured on this daughter population with a gate in the FL1 channel that excluded cells with autofluorescence levels similar to the negative controls. Cells were considered mVenus^+ when both the % of gated mVenus^+ cells (and >0.1%) and mVenus mean fluorescence intensity were higher than the values of the WT controls. Propidium iodide (Thermo Fisher) was used to verify viability and acquired on the FL3 channel (620/20 nm). To select for palmelloid cells, a second gate that included events with a minimum of 2-fold increase in FSC mean intensity was drawn, similarly to (Cheloni and Slaveykova, 2021). In that case, cells were acquired on a Beckman Cytoflex S equipped with violet (405 nm), blue (488 nm), yellow-green (561 nm) and red (638 nm) lasers. Chlorophyll autofluorescence was detected in the PerCP channel (690/50 nm), mVenus on the FITC (525/40BP). Statistics were obtained using BD FlowJo version 10 software (BD Biosciences, La Jolla, CA, USA, 2020).

Data set [2] has as its system C. reinhardtii. The data set can be described thus: Palmelloid colony formation and motility (microscopy, flow cytometry). As for the experimental part: (§3) For the SAHA main treatments, inoculum of 10^5 cells in late exponential phase of growth were transferred in 50 mL of TAP medium in 125 mL shake flasks and were treated with 5 μM for 12 days (to evaluate mVenus expression overtime), or with 2.5, 5 and 10 μM for 6 days (to evaluate SAHA toxicity over cell viability). DMSO was used as a negative control.
as §2

Data set [3] concerns C. reinhardtii. The data set is described as follows: Chlorophyll content observed by culture colour at higher SAHA concentrations.
Data set [4] has as its system mVenus. The data set is described as follows: mVenus expression after one year of storage, 72 h treatment with histone deacetylase inhibitors (flow cytometry). The conditions noted are these: SAHA 5 μM, cells stored for one year after transformation.
Source text: as §2, with “Statistics were obtained using BD FlowJo version 10 software (BD Biosciences, La Jolla, CA, USA, 2020).” left out

In data set [5] the test system is mVenus. The data set can be described thus: mVenus expression by flow cytometry after 24 h treatment with silencing inhibitors (96 well liquid culture). As for the experimental part:
For the sirtinol, SAHA, OSS-128167, nicotinamide and sodium butyrate series of treatments (comparison between various HDAC inhibitors), inoculums of 10^5 cells in late exponential phase of growth were transferred in 200 μL of TAP medium in 96 well plates and were treated with 50 μM, 2.5 μM, 100 μM, 1 mM and 5 mM of each histone deacetylase inhibitor respectively for 24 hours; a mix of all inhibitors was also tested. DMSO was used as a negative control.
as §2
(In flow cytometry, cells or beads pass a laser one at a time.)

Data set [6] has as its system C. reinhardtii. The data set is described as follows: Cell viability (membrane integrity) by propidium iodide staining, flow cytometry. The conditions noted are these: SAHA 2.5, 5 and 10 μM, day 6. How it is done:
as §3
as §2, with “To select for palmelloid cells, a second gate that included events with a minimum of 2-fold increase in FSC mean intensity was drawn, similarly to (Cheloni and Slaveykova, 2021). In that case, cells were acquired on a Beckman Cytoflex S equipped with violet (405 nm), blue (488 nm), yellow-green (561 nm) and red (638 nm) lasers.” left out, “Statistics were obtained using BD FlowJo version 10 software (BD Biosciences, La Jolla, CA, USA, 2020).” left out

The subject of data set [7] is mVenus. The data set is described as follows: mVenus expression followed over 12 days after SAHA treatment in flask cultures (microplate reader and flow cytometer). As for the experimental part: as §3, §1, §2
The next data set relates to mVenus mRNA. The data set can be described thus: mVenus mRNA relative expression by RT-qPCR (normalized on histone H3). The conditions noted are these: day 6. How it is done:
4 mL of a 6 days C. reinhardtii grown culture were harvested and centrifuged in Eppendorf tube for 5 min at 4000 g. Cells were lysed by immersion in liquid nitrogen for 1 min. Total RNA was extracted using Invitrogen™ TRIzol™ reagent (Life technologies, Thermo Fisher Scientifics) according to the manufacturer's protocol with minor modifications, including the addition of NaCl at a final concentration of 100 mM in the isopropanol at the nucleic acids precipitation step. Samples were further treated with Turbo DNase (Invitrogen™ TURBO DNA-free™ Kit, Thermo Fisher Scientifics) according to the manufacturer's instructions. RNA yield and quality were determined with 260 nm/280 nm absorbance ratio obtained on a Nanodrop instrument (Thermo Fisher Scientific). Samples of <100 ng total RNA were subjected to reverse transcription and qPCR amplification in a single reaction using the Luna® Universal One-Step RT-qPCR Kit Protocol (New England Biolabs Canada). Briefly, 1 μl of RNA were subjected to reverse transcription performed at 55° C. for 10 minutes. Initial denaturation was 1 min at 95° C. followed by 45 cycles of denaturation for 10 seconds, extension for 30 seconds at 60° C. […] SYBR Green fluorescence was recorded in the FAM channel of a CFX connect real time system (BioRad). […] Relative mRNA expression levels were determined according to the 2^(−ddCt) method.
(In general: Real-time PCR tracks product formation cycle by cycle.)

The subject of data set [8] is C. reinhardtii. The data set can be described thus: Growth curve / growth kinetic (OD 750 nm). As for the experimental part:
[…] DMSO was used as a negative control.
as §1

Where [9] appears, read: SAHA 2.5 μM, transformed clones.
Where [10] appears, read: SAHA 5 μM, compared to untreated or DMSO treated cells.

As to `O=C(/C=C/c1cccc(S(=O)(=O)Nc2ccccc2)c1)NO` [Belinostat, (2E)-N-Hydroxy-3-[3-(phenylsulfamoyl)phenyl]prop-2-enamide], the “expression of the transgene” value with mVenus [1] was “substantially increase”.

With `O=C(/C=C/c1ccc(CN(CCO)CCc2c[nH]c3ccccc23)cc1)NO` [Dacinostat, (E)-N-hydroxy-3-[4-[[2-hydroxyethyl-[2-(1H-indol-3-yl)ethyl]amino]methyl]phenyl]prop-2-enamide], in the data set with mVenus [1], the “expression of the transgene” value is given as “substantially increase”.

Turning to `O=C(CCCCCCC(=O)Nc1ccccc1)NO` [SAHA, N-hydroxy-N′-phenyloctanediamide], the “palmelloid colonies quantified by flow cytometry” value with C. reinhardtii [2] (SAHA 5 μM, day 3 and 6 post-treatment, in most cases) is recorded as “increased”. In the data set with C. reinhardtii [2] (SAHA 5 and 10 μM, 6 days), the “palmelloid colonies (microscopy)” value is “accumulation of small palmelloid colonies”. For the same molecule, in the data set on C. reinhardtii [2] (SAHA 20, 40 and 80 μM, increasing concentrations), the “palmelloid colonies (microscopy)” value was “Larger palmelloid colonies”. For the same molecule, the motility entry in the data set on C. reinhardtii [2] (SAHA above 2.5 μM) is recorded as “progressively lost”. The “phenotype induced in C. reinhardtii” value in the data set with C. reinhardtii [2] (SAHA, FIG. 6) was “induces a palmelloid phenotype”. The “chlorophyll content, culture colour” value in the data set with C. reinhardtii [3] (80 μM SAHA) is reported as “red tint”. For the same molecule, the “chlorophyll content, culture colour” value in the data set with C. reinhardtii [3] (20 and 40 μM SAHA) was “more yellow tint”. In addition, in the data set with mVenus [4], the “frequency of cells expressing mVenus” value is “increased”. Also, in the data set with mVenus [5] (setting [9]), the “frequency of cells expressing mVenus” value is listed as “increased” and the “level of expression of mVenus per cell” value is reported as “increased”. Also, in the data set with mVenus [5] (clone 16, SAHA 2.5 μM), the “% of mVenus cells” value is 68.1% and the “increase in protein expression (mean fluorescence intensity)” value is 4.6 fold. For the same molecule, the “increase of % of mVenus cells” value in the data set with mVenus [5] (clone 16, SAHA 2.5 μM, versus 13.3% without SAHA) is on record as 5.1 fold. Moreover, in the data set on C. reinhardtii [6], the “% of PI+ cells” value is reported as “slightly increased” and the “% of transformant cells remaining intact” value is recorded as ~ 90%. Besides, the mVenus fluorescence result in the data set on mVenus [7] (SAHA 5 μM at day 0, around day 4-5, all clones) is “steadily increased”. For the same molecule, the “transgene expression over culture period” value in the data set on mVenus [7] (SAHA 5 μM, 12 days, flask cultures) is given as “steadily increases”. In addition, the “decline in mVenus production in stationary phase” value in the data set on mVenus [7] (SAHA 5 μM, around day 7-8) is recorded as “did not prevent the progressive decline in production”. Further, in the data set with mVenus [7] (setting [10]), the “mVenus fluorescence per cell at day 12” value is “more mVenus fluorescence per cells” and the “population of mVenus expressing cells at day 12” value was “more frequent population of mVenus expressing cells”. Also, the “% of producing cells (mVenus+) at maximum production” value with mVenus [7] (SAHA 5 μM, day 5-7, all the clones) is given as “more than 74%”. Moreover, in the data set with mVenus [7] (SAHA 5 μM, end of the exponential phase), the “time of maximum production of mVenus” value is 5 to 7 days. Moreover, the “% mVenus+ cells at day 12” value in the data set with mVenus [7] (SAHA 5 μM, most clones (except 16)) is less than 10%. In the data set on mVenus [1] (clone 16, 5 μM), the “frequency of mVenus-positive cells” value worked out at 73.1%, the “increase of amount of mVenus inside each cell (mean fluorescence intensity)” value is listed as 3-4 fold and the “increase of frequency of mVenus-positive cells” value is recorded as 8.6 fold. For the same molecule, in the data set on mVenus [1] (clone 17, 5 μM), the “frequency of mVenus-positive cells” value is listed as 59.9%, the “increase of amount of mVenus inside each cell (mean fluorescence intensity)” value is recorded as 2-5 fold and the “increase of frequency of mVenus-positive cells” value was found to be 27 fold. Besides, the “expression of the transgene” value in the data set with mVenus [1] is reported as “substantially increase”. The “increase of relative mVenus mRNA expression over histone H3 mRNA” value in the data set on mVenus mRNA (clone 16, SAHA 5 μM) worked out at 7 fold. The “increase of relative mVenus mRNA expression over histone H3 mRNA” value with mVenus mRNA (clone 17, SAHA 5 μM) is listed as 6.6 fold. Moreover, in the data set on C. reinhardtii [8] (80 μM SAHA), the growth kinetic entry was “totally inhibited”. The growth kinetic entry in the data set with C. reinhardtii [8] (20 and 40 μM SAHA) is on record as “inhibited partially”. The “overall growth of microalgae” value with C. reinhardtii [8] (SAHA 5 μM, 12 days) is listed as “did not impact the overall growth”.

`Cc1[nH]c2ccccc2c1CCNCc1ccc(/C=C/C(=O)NO)cc1` [Panobinostat, (2E)-N-hydroxy-3-[4-({[2-(2-methyl-1H-indol-3-yl)ethyl]amino}methyl)phenyl]acrylamide]: in the data set on mVenus [1], the “expression of the transgene” value is “substantially increase”.
